Test results taken from patent publication US20220185832A1, “CD73 INHIBITORS” (BioArdis LLC, priority 2019, published 2022).

Columns and labels:
[1] = molecular target: T1, Cell surface CD73 of U87 MG human glioblastoma cells (Homo sapiens, UniProt P21589); experiment: CD73 Cellular Assay; format: cell-based; conditions: 5000 cells per well, 30 μM AMP, PiColorLock phosphate detection in supernatant, read-out: Potency (IC50)
T1 construct: Cell surface CD73 catalyzes the conversion of adenosine monophosphate (AMP) to adenosine and inorganic phosphate; endogenous in cells; host or cells: U87 MG human glioblastoma cells
T1 sequence (P21589 27-549): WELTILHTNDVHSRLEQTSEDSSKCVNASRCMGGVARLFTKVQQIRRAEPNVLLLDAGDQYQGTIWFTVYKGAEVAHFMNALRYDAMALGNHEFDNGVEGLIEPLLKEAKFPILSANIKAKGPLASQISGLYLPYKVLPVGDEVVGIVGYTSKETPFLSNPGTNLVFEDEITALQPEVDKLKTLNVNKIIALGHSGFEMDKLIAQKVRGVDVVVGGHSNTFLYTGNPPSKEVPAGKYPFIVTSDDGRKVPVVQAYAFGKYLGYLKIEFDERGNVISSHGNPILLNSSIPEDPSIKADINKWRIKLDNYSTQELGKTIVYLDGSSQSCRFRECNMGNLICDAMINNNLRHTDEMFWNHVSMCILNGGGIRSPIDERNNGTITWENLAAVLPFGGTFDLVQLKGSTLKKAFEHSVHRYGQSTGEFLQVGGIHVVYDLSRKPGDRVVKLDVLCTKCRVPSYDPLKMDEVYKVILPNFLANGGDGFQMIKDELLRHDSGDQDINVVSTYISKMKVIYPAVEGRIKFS
Protocol: Cell surface CD73 catalyzes the conversion of adenosine monophosphate (AMP) to adenosine and inorganic phosphate. U87 MG human glioblastoma cells express high level of CD73. Cells are treated with compounds in a 96-well assay plate and supernatants are collected into a 384-well detection plate. The concentration of inorganic phosphate (Pi) in the supernatants is determined using the phosphate detection reagent, PiColorLock™ (Innova Bioscience, Cat #303-0125) following the manufacturer's instructions.
Briefly, on the day of the assay, U87 MG cells were harvested and resuspended in assay buffer which consisted of 20 mM HEPES, pH=7.4, 137 mM NaCl, 5.4 mM KCl, 1.3 mM CaCl2, 4.2 mM NaHCO3 and 0.1% glucose. To test the effect of compounds on cellular CD73 enzymatic activity, 500 nL/well of compounds dissolved in DMSO were added to a 96-well TC-treated microplate (Corning #3599). Next, 80 μL/well of U87 MG cells in assay buffer were added to assay plate. After 30 minutes of incubation in an atmosphere of 5% CO2 at 37° C., 20 μL/well of 150 μM AMP (Adenosine 5′-monophosphate monohydrate, Sigma, Cat #01930) in assay buffer was added to assay plate. Final assay conditions consisted of 5000 cells per well in 0.5% DMSO and 30 μM AMP substrate. After 50 minutes of incubation in an atmosphere of 5% CO2 at 37° C., 50 μL/well of supernatant was transferred to the 384-well detection plate (Corning® NBSTM 384 well plates, Cat #3640). Meanwhile “Gold mix” was prepared shortly before use by adding 1/100 volume of accelerator to the PiColorLock™ Gold reagent. 12 μL/well of the “Gold mix” was added to detection plate containing 50 μL/well of supernatant and incubated at 25° C. for 5 minutes. 5 μL/well stabilizer was added to the detection plate and incubated at 25° C. for 30 minutes. The absorbance at 635 nm was measured on a Spark 10M instrument (TECAN).
The percent (%) inhibition at each concentration of a compound was calculated relative to the OD value in the Max and Min control wells contained within each assay plate. The Max control wells contained cells and substrate as 0% inhibition, and the Min control wells only contained cells as 100% inhibition. The concentrations and percent inhibition values for a test compound are plotted and the concentration of the compound required to achieve 50% inhibition (IC50) was determined with a four-parameter logistic dose response equation.

[2] = molecular target: T2, Recombinant Human 5′-Nucleotidase (CD73) (Homo sapiens, UniProt P21589); experiment: CD73 Enzyme Assay; format: biochemical; conditions: 0.5 nM human CD73, 30 μM AMP, PiColorLock phosphate detection, OD 635 nm; read-out: Potency (IC50)
T2 construct: CHO derived CD73 (Trp27-Lys547), with a C-terminal 6-His tag; 6-His (C); purchased R&D 5795-EN; host or cells: CHO
T2 sequence (P21589 27-547): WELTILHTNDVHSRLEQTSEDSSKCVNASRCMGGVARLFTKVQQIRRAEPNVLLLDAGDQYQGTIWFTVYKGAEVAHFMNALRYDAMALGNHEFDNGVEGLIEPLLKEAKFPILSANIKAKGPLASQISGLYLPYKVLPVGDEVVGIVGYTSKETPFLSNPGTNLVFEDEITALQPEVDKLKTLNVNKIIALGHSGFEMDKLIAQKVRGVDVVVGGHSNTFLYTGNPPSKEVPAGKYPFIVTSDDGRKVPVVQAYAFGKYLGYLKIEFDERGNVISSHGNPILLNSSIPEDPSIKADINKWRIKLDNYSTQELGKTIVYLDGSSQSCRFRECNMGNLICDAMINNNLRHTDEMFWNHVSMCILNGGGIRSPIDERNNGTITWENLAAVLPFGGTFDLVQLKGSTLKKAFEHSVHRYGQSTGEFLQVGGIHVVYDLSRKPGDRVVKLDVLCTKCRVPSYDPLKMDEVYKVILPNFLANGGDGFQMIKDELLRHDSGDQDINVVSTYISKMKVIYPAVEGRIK
Outline: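 CHO-derived human CD73 (Trp27-Lys547, C-terminal His tag; 0.5 nM) preincubated with compound 15 min at 25° C in Tris pH 7.5 with MgCl2 and Tween-20. Reaction with 30 μM AMP ran 20 min at 37° C; released phosphate read by malachite green at 635 nm, IC50 from 4-parameter logistic fit.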

IC50 [1]	IC50 [2]	Structure (SMILES)
> 1000 nM	< 10 nM	O=P(O)(O)CP(=O)(O)OC[C@H]1O[C@@H](c2ccc3c(NC4CCCC4)ncnc3c2)[C@H](O)[C@@H]1O [Compound 46, [({[(2R,3S,4R,5S)-5-[4-(cyclopentylamino)quinazolin-7-yl]-3,4-dihydroxyoxolan-2-yl]methoxy}(hydroxy)phosphoryl)methyl]phosphonic acid]
< 10 nM	< 10 nM	O=P(O)(O)CP(=O)(O)OC[C@H]1O[C@@H](c2ccc3c(NC4CCCCC4)nc(Cl)nc3c2)[C@H](O)[C@@H]1O [Compound 31, (((((2R,3S,4R,5S)-5-(2-chloro-4-(cyclohexylamino)quinazolin-7-yl)-3,4-dihydroxytetrahydrofuran-2-yl)methoxy)(hydroxy)phosphoryl)methyl)phosphonic acid]

The next lines start with the compound.

Structure (SMILES)	IC50 [1]	IC50 [2]
O=P(O)(O)CP(=O)(O)OC[C@H]1O[C@@H](c2ccc3c(NCc4ccccc4)ncnc3c2)[C@H](O)[C@@H]1O [Compound 12, [({[(2R,3S,4R,5S)-5-[4-(benzylamino)quinazolin-7-yl]-3,4-dihydroxyoxolan-2-yl]methoxy}(hydroxy)phosphoryl)methyl]phosphonic acid]	< 10 nM	10 to 99 nM
O=P(O)(O)CP(=O)(O)OC[C@H]1O[C@@H](c2ccc3c(NCC4CC4)nc(Cl)nc3c2)[C@H](O)[C@@H]1O [Compound 9, (((((2R,3S,4R,5S)-5-(2-chloro-4-((cyclopropylmethyl)amino)quinazolin-7-yl)-3,4-dihydroxytetrahydrofuran-2-yl)methoxy)(hydroxy)phosphoryl)methyl)phosphonic acid]	< 10 nM	10 to 99 nM
O=P(O)(O)CP(=O)(O)OC[C@H]1O[C@@H](c2ccc3c(NCCc4ccccc4)nc(Cl)nc3c2)[C@H](O)[C@@H]1O [Compound 2, (((((2R,3S,4R,5S)-5-(2-chloro-4-(phenethylamino)quinazolin-7-yl)-3,4-dihydroxytetrahydrofuran-2-yl)methoxy)(hydroxy)phosphoryl)methyl)phosphonic acid]	< 10 nM	10 to 99 nM
